Like-named read-outs stand apart in the source and are kept apart here.
Legend:
MT-4 cells = assay: Cytotoxicity assay in MT-4 cells; format: cell-based; conditions: 5 days, Cell-Titer Glo
Procedure: (§1) The MT-4 cell line was obtained from the NIH AIDS Research and Reference Reagent Program (Germantown, Md.) and cultured in RPMI-1640 medium (Irvine Scientific, Santa Ana, Calif., Cat #9160) supplemented with 10% FBS, 100 units/mL penicillin, 100 units/mL streptomycin, and 2 mM L-Glutamine. The MT-4 cells were passaged twice per week to maintain cell densities below 0.6×10^6 cells/mL. Complete RPMI-1640 media containing 100× concentrations of 3-fold serially diluted compound, ranging from 26 nM to 530 μM, were stamped in quadruplicate into black 384-well plates. After compound addition, 2×10^3 MT-4 cells were added to each well using a MicroFlo liquid dispenser (BioTek, Winooski, Vt.) and the cells were cultured for 5 days at 37° C. in a 5% CO2 incubator. Following the incubation the cells were allowed to equilibrate to 25° C. and cell viability was determined by adding 25 μL of Cell-Titer Glo viability reagent. The mixture was incubated for 10 minutes at 25° C., and the luminescence signal was quantified on a Victor Luminescence plate reader. The CC50 value is defined as the concentration of compound that reduces cell viability by 50% as determined by the Cell-Titer Glo signal. The data were analyzed using Pipeline Pilot Plate Data Analytics Collection software (Version 7.0, Accelrys, San Diego, Calif.). CC50 values were calculated from a non-linear regression analysis using a 4-parameter sigmoidal dose-response equation: Y=Bottom+(Top−Bottom)/(1+10^[(Log CC50−X)*HillSlope]) where the Top and Bottom were fixed at 100% and 0% cell viability, respectively. CC50 values were calculated as the average±standard deviation of 3 independent experiments.

RSV strain A2 = assay: Anti-RSV activity, infectious cytopathic cell protection assay in HEp-2 cells; format: cell-based, Respiratory Syncytial Virus (RSV)
Procedure: Antiviral activity against RSV is determined using an infectious cytopathic cell protection assay in HEp-2 cells. In this assay, compounds inhibiting viral infection and/or replication produce a cytoprotective effect against the virus-induced cell killing that can be quantified using a cell viability reagent. The techniques used here are novel adaptations of methods described in published literature (Chapman et al., Antimicrob Agents Chemother. 2007, 51(9):3346-53.)
HEp-2 cells are obtained from ATCC (Manassas, VI) and maintained in MEM media supplemented with 10% fetal bovine serum and penicillin/streptomycin. Cells are passaged twice a week and kept at subconfluent stage. Commercial stock of RSV strain A2 (Advanced Biotechnologies, Columbia, Md.) is titered before compound testing to determine the appropriate dilution of the virus stock that generates desirable cytopathic effect in HEp-2 cells.
For antiviral tests, HEp-2 cells are grown in large cell culture flasks to near confluency but not fully so. The compounds to be tested are prediluted in DMSO in 384-well compound dilution plates, either in an 8 or 40 sample per plate standardized dose response format. 3-fold serial dilution increments of each test compound are prepared in the plates and test samples are transferred via acoustic transfer apparatus (Echo, Labcyte) at 100 nl per well into cell culture assay 384-well plates. Each compound dilution is transferred in single or quadruplicate samples into dry assay plates, which are stored until assay is ready to go. The positive and negative controls are laid out in opposite on ends of the plate in vertical blocks (1 column).
Subsequently, an infectious mixture is prepared using an appropriate dilution of virus stock previously determined by titration with cells at a density of 50,000/ml and 20 uL/well is added to test plates w/compounds via automation (uFlow, Biotek). Each plate includes negative and positive controls (16 replicates each) to create 0% and 100% virus inhibition standards, respectively. Following the infection with RSV, testing plates are incubated for 4 days in a 37° C. cell culture incubator. After the incubation, a cell viability reagent, Cell TiterGlo (Promega, Madison, Wis.) is added to the assay plates, which are incubated briefly, and a luminescent readout is measured (Envision, Perkin Elmer) in all the assay plates. The RSV-induced cytopathic effect, percentage inhibition, is determined from the levels of remaining cell viability. These numbers are calculated for each tested concentration relative to the 0% and 100% inhibition controls, and the EC50 value for each compound is determined by non-linear regression as a concentration inhibiting the RSV-induced cytopathic effect by 50%. Various potent anti-RSV tool compounds are used as positive controls for antiviral activity.

HEp-2 cells = assay: Cytotoxicity assay in HEp-2 cells; format: cell-based; conditions: uninfected HEp-2 cells, 4 days, CellTiter Glo
Procedure: (§2) Cytotoxicity of tested compounds is determined in uninfected HEp-2 cells in parallel with the antiviral activity using the cell viability reagent in a similar fashion as described before for other cell types (Cihlar et al., Antimicrob Agents Chemother. 2008, 52(2):655-65.). The same protocol as for the determination of antiviral activity is used for the measurement of compound cytotoxicity except that the cells are not infected with RSV. Instead, an uninfected cell mixture at the same density is added at 20 ul/well to plates containing prediluted compounds, also at 100 nl/sample. Assay plates are then incubated for 4 days followed by a cell viability test using the same CellTiter Glo reagent addition and measurement of luminescent readouts. Untreated cell and cells treated at 2 uM puromycin (Sigma, St. Louis, Mo.) serve as 100% and 0% cell viability control, respectively. The percent of cell viability is calculated for each tested compound concentration relative to the 0% and 100% controls and the CC50 value is determined by non-linear regression as a compound concentration reducing the cell viability by 50%.

[1] = target: T1, RSV ribonucleoprotein (RNP) complexes (Human respiratory syncytial virus A, UniProt P28887); assay: RSV RNP assay (inhibition of RSV RNP transcription); format: biochemical, RSV A2; conditions: 90 minute incubation at 30° C., total radiolabeled transcripts
T1 construct: The supernatant (S3) fraction, containing the enriched RSV RNP complexes, was collected; endogenous in cells; host or cells: HEp-2 cells infected with RSV A2; detergent-extracted crude S3 fraction
T1 sequence (P28887 whole entry): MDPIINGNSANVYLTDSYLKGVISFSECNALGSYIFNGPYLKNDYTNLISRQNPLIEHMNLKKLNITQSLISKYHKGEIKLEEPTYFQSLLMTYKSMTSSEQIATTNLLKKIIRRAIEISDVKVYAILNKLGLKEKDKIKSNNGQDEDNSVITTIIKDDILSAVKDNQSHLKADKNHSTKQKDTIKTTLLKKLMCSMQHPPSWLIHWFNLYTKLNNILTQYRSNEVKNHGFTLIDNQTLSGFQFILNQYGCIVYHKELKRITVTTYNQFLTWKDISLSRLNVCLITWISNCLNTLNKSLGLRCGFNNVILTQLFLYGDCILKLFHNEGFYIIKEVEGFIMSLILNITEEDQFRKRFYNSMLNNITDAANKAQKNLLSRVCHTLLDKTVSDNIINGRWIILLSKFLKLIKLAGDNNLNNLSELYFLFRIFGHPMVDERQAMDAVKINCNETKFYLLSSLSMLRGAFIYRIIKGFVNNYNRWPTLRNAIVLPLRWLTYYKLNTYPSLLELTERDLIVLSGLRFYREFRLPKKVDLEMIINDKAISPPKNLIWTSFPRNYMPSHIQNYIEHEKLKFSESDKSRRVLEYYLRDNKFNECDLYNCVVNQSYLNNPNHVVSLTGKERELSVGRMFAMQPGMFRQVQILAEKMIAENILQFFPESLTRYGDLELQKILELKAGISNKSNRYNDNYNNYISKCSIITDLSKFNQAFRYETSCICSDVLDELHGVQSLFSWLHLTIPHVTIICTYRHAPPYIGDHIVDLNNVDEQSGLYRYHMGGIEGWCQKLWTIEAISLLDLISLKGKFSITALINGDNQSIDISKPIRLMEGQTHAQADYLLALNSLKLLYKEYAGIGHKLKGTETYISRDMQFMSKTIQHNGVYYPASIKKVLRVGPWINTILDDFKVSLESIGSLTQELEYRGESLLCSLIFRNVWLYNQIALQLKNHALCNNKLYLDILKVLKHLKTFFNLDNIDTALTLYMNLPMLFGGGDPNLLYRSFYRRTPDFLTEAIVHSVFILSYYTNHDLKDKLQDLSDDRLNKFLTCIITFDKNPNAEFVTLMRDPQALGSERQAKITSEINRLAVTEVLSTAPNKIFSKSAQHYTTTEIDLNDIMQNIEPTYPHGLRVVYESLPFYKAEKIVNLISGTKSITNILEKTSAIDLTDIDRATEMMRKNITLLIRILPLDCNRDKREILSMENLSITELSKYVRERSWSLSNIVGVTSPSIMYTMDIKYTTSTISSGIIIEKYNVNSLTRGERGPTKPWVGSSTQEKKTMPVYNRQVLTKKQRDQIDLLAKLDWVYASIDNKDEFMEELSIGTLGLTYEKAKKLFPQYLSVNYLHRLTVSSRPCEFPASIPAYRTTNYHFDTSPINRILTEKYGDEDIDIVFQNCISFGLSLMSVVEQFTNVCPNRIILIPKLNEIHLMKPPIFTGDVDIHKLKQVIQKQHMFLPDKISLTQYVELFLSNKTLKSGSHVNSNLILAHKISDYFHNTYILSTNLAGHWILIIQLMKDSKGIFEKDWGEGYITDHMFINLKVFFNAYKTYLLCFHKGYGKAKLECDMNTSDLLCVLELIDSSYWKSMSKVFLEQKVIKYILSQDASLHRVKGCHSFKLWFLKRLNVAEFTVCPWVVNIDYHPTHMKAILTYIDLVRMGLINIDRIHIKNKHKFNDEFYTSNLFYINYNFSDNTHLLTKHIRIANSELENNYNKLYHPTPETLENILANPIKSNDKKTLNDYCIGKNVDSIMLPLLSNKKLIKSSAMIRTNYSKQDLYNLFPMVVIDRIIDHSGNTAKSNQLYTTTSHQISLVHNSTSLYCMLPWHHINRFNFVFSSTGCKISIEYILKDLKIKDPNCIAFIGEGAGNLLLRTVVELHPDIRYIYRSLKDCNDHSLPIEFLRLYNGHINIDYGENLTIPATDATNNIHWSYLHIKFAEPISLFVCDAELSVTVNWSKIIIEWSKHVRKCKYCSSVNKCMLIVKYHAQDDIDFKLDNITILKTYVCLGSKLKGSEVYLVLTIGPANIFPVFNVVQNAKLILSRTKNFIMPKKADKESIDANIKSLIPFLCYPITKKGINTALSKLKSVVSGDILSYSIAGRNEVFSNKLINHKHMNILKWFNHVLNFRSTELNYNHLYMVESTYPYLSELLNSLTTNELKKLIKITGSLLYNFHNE
T1 sequence (P03421 whole entry, further chain): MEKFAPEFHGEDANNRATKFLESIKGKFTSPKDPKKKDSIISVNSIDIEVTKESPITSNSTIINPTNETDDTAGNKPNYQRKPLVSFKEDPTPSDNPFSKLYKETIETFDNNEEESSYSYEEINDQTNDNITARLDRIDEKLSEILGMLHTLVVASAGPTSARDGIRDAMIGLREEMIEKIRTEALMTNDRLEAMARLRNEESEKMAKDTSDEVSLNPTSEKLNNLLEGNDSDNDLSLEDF
Procedure: RSV ribonucleoprotein (RNP) complexes were prepared from a method modified from Mason at al (1). HEp-2 cells were plated at a density of 7.1×10^4 cells/cm^2 in MEM+10% fetal bovine serum (FBS) and allowed to attach overnight at 37° C. (5% CO2). Following attachment, the cells were infected with RSV A2 (M01=5) in 35 mL MEM+2% FBS. At 20 hours post-infection, the media was replaced with MEM+2% FBS supplemented with 2 μg/mL actinomycin D and returned to 37° C. for one hour. The cells were then washed once with PBS and treated with 35 mL of PBS+250 μg/mL lyso-lecithin for one minute, after which all liquid was aspirated. The cells were harvested by scrapping them into 1.2 mL of buffer A [50 mM TRIS acetate (pH 8.0), 100 mM potassium acetate, 1 mM DTT and 2 μg/mL actinomycin D] and lysed by repeated passage through an 18 gauge needle (10 times). The cell lysate was placed in ice for 10 minutes and then centrifuged at 2400g for 10 minutes at 4° C. The supernatant (S1) was removed and the pellet (P1) was disrupted in 600 uL of Buffer B [10 mM TRIS acetate (pH 8.0), 10 mM potassium acetate and 1.5 mM MgCl2] supplemented with 1% Triton X-100 by repeated passage through an 18 gauge needle (10 times). The resuspended pellet was placed in ice for 10 minutes and then centrifuged at 2400g for 10 minutes at 4° C. The supernatant (S2) was removed and the pellet (P2) was disrupted in 600 uL of Buffer B supplemented with 0.5% deoxycholate and 0.1% Tween 40. The resuspended pellet was placed in ice for 10 minutes and then centrifuged at 2400g for 10 minutes at 4° C. The supernatant (S3) fraction, containing the enriched RSV RNP complexes, was collected and the protein concentration determined by UV absorbance at 280 nm. Aliquoted RSV RNP S3 fractions were stored at −80° C.
Transcription reactions contained 25 μg of crude RSV RNP complexes in 30 μL of reaction buffer [50 mM TRIS-acetate (pH 8.0), 120 mM potassium acetate, 5% glycerol, 4.5 mM MgCl2, 3 mM DTT, 2 mM ethyleneglycol-bis(2-aminoethylether)-tetraacetic acid (EGTA), 50 μg/mL BSA, 2.5 U RNasin (Promega), ATP, GTP, UTP, CTP and 1.5 uCi [α-^32P] NTP (3000 Ci/mmol)]. The radiolabeled nucleotide used in the transcription assay was selected to match the nucleotide analog being evaluated for inhibition of RSV RNP transcription. Cold, competitive NTP was added at a final concentration of one-half its Km (ATP=20 μM, GTP=12.5 μM, UTP=6 μM and CTP=2 μM). The three remaining nucleotides were added at a final concentration of 100 μM.
To determine whether nucleotide analogs inhibited RSV RNP transcription, compounds were added using a 6 step serial dilution in 5-fold increments. Following a 90 minute incubation at 30° C., the RNP reactions were stopped with 350 μL of Qiagen RLT lysis buffer and the RNA was purified using a Qiagen RNeasy 96 kit. Purified RNA was denatured in RNA sample loading buffer (Sigma) at 65° C. for 10 minutes and run on a 1.2% agarose/MOPS gel containing 2M formaldehyde. The agarose gel was dried and exposed to a Storm phosphorimager screen and developed using a Storm phosphorimager (GE Healthcare). The concentration of compound that reduced total radiolabeled transcripts by 50% (IC50) was calculated by non-linear regression analysis of two replicates.

[2] = Cytotoxicity assay in HEp-2 cells; format: cell-based; conditions: human, uninfected HEp-2 cells, CellTiter Glo
Procedure: as §2

[3] = Cytotoxicity assay in MT-4 cells; format: cell-based; conditions: human, Cell-Titer Glo
Procedure: as §1

[4] = human respiratory syncytial virus, 96 h, HEp-2 cells infected with RSV A2, 4 days, Cell TiterGlo, read-out: EC50

Structure (SMILES)	CC50 (MT-4 cells)	IC50 [1]	other results
N#C[C@]1(CO)O[C@@H](c2ccc3c(N)ncnn23)[C@H](O)[C@@H]1O [Example 1, (2R,3S,4R,5S)-5-(4-aminopyrrolo[1,2-f][1,2,4]triazin-7-yl)-3,4-dihydroxy-2-(hydroxymethyl)tetrahydrofuran-2-carbonitrile]	> 53000 nM		EC50 (RSV strain A2; HEp-2 cells infected with RSV A2, 4 days, Cell TiterGlo, read-out: EC50): 7300 nM; CC50 (HEp-2 cells): > 50000 nM
C=C[C@]1(COP(=O)(O)OP(=O)(O)OP(=O)(O)O)O[C@@H](c2ccc3c(N)ncnn23)[C@H](F)[C@@H]1O [Example 17, ((2R,3R,4R,5S)-5-(4-aminopyrrolo[2,1-f][1,2,4]triazin-7-yl)-4-fluoro-3-hydroxy-2-vinyltetrahydrofuran-2-yl)methyl tetrahydrogen triphosphate]		560 nM	
CC[C@]1(COP(=O)(O)OP(=O)(O)OP(=O)(O)O)O[C@@H](c2ccc3c(N)ncnn23)[C@H](F)[C@@H]1O [Example 18, ((2R,3R,4R,5S)-5-(4-aminopyrrolo[2,1-f][1,2,4]triazin-7-yl)-2-ethyl-4-fluoro-3-hydroxytetrahydrofuran-2-yl)methyl tetrahydrogen triphosphate]		420 nM	
[N-]=[N+]=N[C@]1(CO)O[C@@H](c2ccc3c(N)nc(F)nn23)[C@H](F)[C@@H]1O [Example 22, (2R,3R,4R,5S)-5-(4-amino-2-fluoropyrrolo[2,1-f][1,2,4]triazin-7-yl)-2-azido-4-fluoro-2-(hydroxymethyl)tetrahydrofuran-3-ol]	32000 nM		EC50 (RSV strain A2; [4]): 570 nM; EC50 (RSV strain A2; human respiratory syncytial virus, HEp-2 anti-RSV activity, read-out: EC50 (HEp-2 anti-RSV activity)): < 100000 nM; CC50 at 4 days [2]: > 100000 nM
Nc1ncnn2c([C@@H]3O[C@@](CO)(CCl)[C@@H](O)[C@H]3O)ccc12 [Example 26, (2R,3S,4R,5S)-5-(4-aminopyrrolo[2,1-f][1,2,4]triazin-7-yl)-2-(chloromethyl)-2-(hydroxymethyl)tetrahydrofuran-3,4-diol]	> 57000 nM		CC50 at 5 days [3]: > 53000 nM; EC50 (RSV strain A2; [4]): > 50000 nM; CC50 at 4 days [2]: 42000 nM
[N-]=[N+]=N[C@]1(COP(=O)(O)OP(=O)(O)OP(=O)(O)O)O[C@@H](c2ccc3c(N)ncnn23)[C@H](F)[C@@H]1O [Example 27, ((2R,3R,4R,5S)-5-(4-aminopyrrolo[2,1-f][1,2,4]triazin-7-yl)-2-azido-4-fluoro-3-hydroxytetrahydrofuran-2-yl)methyl tetrahydrogen triphosphate]		97 nM	
[N-]=[N+]=N[C@]1(COP(=O)(O)OP(=O)(O)OP(=O)(O)O)O[C@@H](c2cc(F)c3c(N)ncnn23)[C@H](F)[C@@H]1O [Example 28, ((2R,3R,4R,5S)-5-(4-amino-5-fluoropyrrolo[2,1f-][1,2,4]triazin-7-yl)-2-azido-4-fluoro-3-hydroxytetrahydrofuran-2-yl)methyl tetrahydrogen triphosphate]		86 nM	
[N-]=[N+]=N[C@]1(COP(=O)(O)OP(=O)(O)OP(=O)(O)O)O[C@@H](c2ccc3c(N)nc(F)nn23)[C@H](F)[C@@H]1O [Example 29, ((2R,3R,4R,5S)-5-(4-amino-2-fluoropyrrolo[2,1-f][1,2,4]triazin-7-yl)-2-azido-4-fluoro-3-hydroxytetrahydrofuran-2-yl)methyl tetrahydrogen triphosphate]		80 nM	
N#C[C@]1(COP(=O)(O)OP(=O)(O)OP(=O)(O)O)O[C@@H](c2cc(F)c3c(N)ncnn23)[C@H](O)[C@@H]1O [Example 32, ((2R,3S,4R,5S)-5-(4-amino-5-fluoropyrrolo[2,1f-][1,2,4]triazin-7-yl)-2-cyano-3,4-dihydroxytetrahydrofuran-2-yl)methyl tetrahydrogen triphosphate]		22 nM	

From patent US9388208B2, “Pyrrolo[1,2-f][1,2,4]triazines useful for treating respiratory syncitial virus infections” (Gilead Sciences, Inc., priority 2013, dated 2016)
